Assay results from ChEMBL document CHEMBL1201862, “PubChem BioAssay data set” (2004).
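How tested: cells in 96-well plates exposed to compound for 48 hours at five concentrations. At the GI50, growth is halved.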 Active and inactive are the calls of the source. No stated cut-off is given here; in the data, active = GI50 up to about 1.1 µM and inactive = higher.

Experiments:
Assay in all cases: NCI tumour cell line growth inhibition, 48 h
UACC-257 = test system: UACC-257
DMS-273 = test system: DMS-273
KM-20L2 = test system: KM-20L2
RXF 631 = test system: RXF 631
LXFL 529 = test system: LXFL 529
DLD-1 = test system: DLD-1
BT-549 = test system: BT-549
Hs-578T = test system: Hs-578T

Measured: GI50

CCOC(=O)c1csc(NC(=O)CN2CCN(C)CC2)n1
inactive: UACC-257 > 100 µM

CCOc1ccc(/N=N/c2ccc3oc(=O)c(/C(C)=N\NC(=O)CC(=O)Nc4ccc(Cl)cc4)cc3c2)cc1
inactive: DMS-273 16.3 µM | KM-20L2 > 100 µM | RXF 631 20 µM | LXFL 529 10.8 µM | DLD-1 12.6 µM

O=P(NCCCO)(OCc1ccccc1)N(CCCl)CCCl (configuration not stated)
inactive: UACC-257 > 100 µM | DMS-273 > 100 µM | KM-20L2 > 100 µM | DLD-1 > 31.6 µM

CCOC(=O)C(NC(=O)CC)(Nc1ccccc1F)C(F)(F)F (configuration not stated)
inactive: UACC-257 > 100 µM | BT-549 > 100 µM | Hs-578T > 100 µM

O=C1N(Cc2ccccc2)C2CSCC2N1Cc1ccccc1 (configuration not stated)
inactive: UACC-257 24.8 µM | BT-549 17.1 µM | Hs-578T 18.6 µM

CC(C)OP(=O)(OC(C)C)c1c(N)n[nH]c1Nc1ccccc1
inactive: UACC-257 > 100 µM | Hs-578T 33 µM

CN1CCC23c4ccccc4NC1C21CCN(C)C3Nc2ccccc21
inactive: UACC-257 93.3 µM | DMS-273 > 375 µM | KM-20L2 > 239 µM | DLD-1 > 375 µM

N=C(N)SCc1cccc([N+](=O)[O-])c1
inactive: UACC-257 27.2 µM | DMS-273 30.2 µM | KM-20L2 31.7 µM | DLD-1 27.2 µM

CC(=O)Oc1cc2c(cc1OC(C)=O)OCC(c1ccc(C)cc1)C2 (configuration not stated)
inactive: UACC-257 21.4 µM | DMS-273 19.4 µM | KM-20L2 25.1 µM | DLD-1 21.8 µM

COc1ccc(N2C(=O)C3c4[nH]c5ccccc5c4C4CCCCCCCCCC4C3C2=O)cc1 (configuration not stated)
inactive: Hs-578T > 10 µM

CNS(=O)(=O)c1ccc2c(c1)/C(=C1/Nc3ccccc3C1=O)C(=O)N2
inactive: UACC-257 > 100 µM | BT-549 66.4 µM | Hs-578T 3.41 µM

c1cc2c3c(c1)c1cc4c(cc1c[n+]3CC2)OCO4 [ANHYDROLYCORINIUM CHLORIDE]
inactive: UACC-257 5.28 µM | DMS-273 4.42 µM | KM-20L2 3.56 µM | DLD-1 8.83 µM

CCCCCCCCCCCCCCCCCCOCC(O)CO (configuration not stated) [BATILOL]
inactive: UACC-257 > 23.9 µM | DMS-273 > 5.93 µM | KM-20L2 19.1 µM | DLD-1 > 25 µM
